For 3 compounds, Activity and solubility results are on record in ChEMBL document CHEMBL2069307, “Triazolbenzo[d]thiazoles: efficient synthesis and biological evaluation as neuroprotective agents” (Bioorg Med Chem Lett, 2012).

Data set [1] concerns SH-SY5Y. Briefly: Neuroprotective activity against serum starvation-induced cell death in human SH-SY5Y cells assessed as increase in cell […] at 20 and 40 uM after 3 days by tetrazolium reduction assay. It counts as functional, cell-based.
Data set [2] in a line: Solubility of the compound. It counts as physicochemical.
Data set [3] has as its system SH-SY5Y. Briefly: Neuroprotective activity against serum starvation-induced cell death in human SH-SY5Y cells assessed as increase in cell viability at 20 and 40 uM after 3 days by tetrazolium reduction assay. The data set is classed as functional, cell-based.
Data set [4] concerns SH-SY5Y. Description: Neuroprotective activity against serum starvation-induced cell death in human SH-SY5Y cells assessed as increase in cell viability at 10 and 20 uM after 3 days by tetrazolium reduction assay. The data set is classed as functional, cell-based.

Active and inactive are the calls of the source. The calls are words filed in the database; no cut-off is given here.

What is called solubility is how much of the substance goes into solution per volume. As for `CC(C)n1c(=O)c2ccccc2n1Cc1cn(-c2ccc3nc(N4CCOCC4)sc3c2)nn1`, the outcome in the data set with SH-SY5Y [1] and with SH-SY5Y [3] was Active. For the same compound, the solubility in data set [2] (read-out: solubility) was above 40 µM.

With `c1ccc(-c2cn(-c3ccc4nc(N5CCOCC5)sc4c3)nn2)cc1`, the outcome in the data set on SH-SY5Y [4] was inactive. Moreover, the solubility result in data set [2] is “Insoluble”.

As to `COC(=O)c1cn(-c2ccc3nc(N4CCOCC4)sc3c2)nn1`, the outcome in the data set with SH-SY5Y [4] was inactive. In data set [2], the solubility entry is listed as “Insoluble”.
